Measured values published in publication PMC5870190, “A three-in-one-bullet for oesophageal cancer: replication fork collapse, spindle attachment failure and enhanced radiosensitivity generated by a ruthenium(II) metallo-intercalator” (Chemical Science, 2017).

Legend:
Assay type in all cases: cell-based, human
OE21 cells [1] = assay: Trypan Blue exclusion assay; details: OE21, Ru1 21 μM
Method: Trypan Blue exclusion assay. OE21 cells were seeded in 6 well plates at 40,000 cells/well and allowed to adhere for 24 h.
Cell cultures were treated as stated, media containing detached/dead cells were removed and retained, and adherent collected by Trypsin and centrifugation. Adherent and detached cells for each sample were combined, concentrated via centrifugation and re-suspended in 0.5 ml PBS containing 0.04% Trypan Blue solution. Trypan Blue negative and Trypan Blue positive cells were counted by haemocytometer. A minimum of 200 cells were counted for each sample. […]
(§1) For the determination of mutation induction, from the untreated and each treated condition, 2x10^5 cells were plated in 10 x 100 mm dishes in selective media (regular media

OE21 cells [2] = assay: Quantification of aberrant mitoses (CLSM); details: OE21, IC50 concentration, 24 h
Method: Microscopy and immunofluorescence. Cells were seeded on ibidi 35 mm µ-dishes (Thistle Scientific), allowed to adhere for 24 h and treated as stated in the main text. Cell media was removed, cells washed with PBS and fixed with formaldehyde (4%, 10 mins). Cells were permeablised with Triton (0.5% in PBS, 5 mins) and washed with PBS. Samples were blocked with BSA (3% in PBS-T) for 1 h before incubation with primary antibody (either anti-α-tubulin or anti-γ H2AX, 1/500 dilution) in BSA (3% in PBS-T) for 1 h. Samples were washed 3x in PBS-T and incubated with Alexa Fluor-conjugated secondary antibodies (3% in PBS-T, 1 h, 1/250 dilution). After further washing (3x5 min PBS-T) samples were co-stained with DAPI (5 ng/ml, 2 min), fresh PBS added and visualised by confocal microscopy. Samples were visualised using a Zeiss LSM 780 or LSM 710 inverted confocal microscope and EC Plan-Neofluar 40x/1.30 Oil objectives. […]
as §1

FLO-1 cells = assay: Clonogenic survival assay with IR, FLO-1; details: Ru1 2 μM or Cis 300 nM for 24 h before IR
Method: Clonogenic survival assay. OE21, OE33 or FLO1 cells were treated with 2 µM Ru1 for 24 h before irradiation with 0-8 Gy using a 137Cs γ-irradiator (IBL637, CIS Bio Int.; dose rate = 0.809 Gy min−1). 1 h after irradiation, cells were detached using Trypsin and re-seeded in 6 well plates at a density of 300 – 20,000 cells/well in triplicate in an incrementally greater number of cells with increasing IR dose to ensure adequate colony formation. Cells were incubated for 7–14 days after re-seeding to allow colony formation before being fixed with 10% methanol, 10% acetic acid and stained with 0.4% methylene blue. OE33 cells required an additional formaldehyde fixation (4% in PBS, 5 mins) step before the addition of methylene blue solution or colony detachment occurred. Colonies containing 50 cells or greater were counted using a Gelcount instrument and accompanying software (Oxford Optronix). Plating efficiencies were determined for each treatment condition and normalised to an untreated control to provide the surviving fraction (S. F.). S.F. versus radiation dose curves were plotted in GraphPad Prism and fit using a second order polynomial function (R2 values > 0.99). Dose modifying factors (DMF) at a SF=0.1 were calculated using the equation: Dose modifying factor (DMF) = IR dose to give S.F. 0.1/IR dose plus compound to give S.F.0.1. […]

Substance: [Ru(phen)2(tpphz)]^2+ [Ru1]
- necrotic cell death (Trypan blue staining) (OE21 cells [1]): ~20%
- mitotic aberrations, share of total cell population (OE21 cells [2]): ~8%
- S.F. (FLO-1 cells; FLO-1, IR 0 Gy): 0.873
- S.F. (FLO-1 cells; FLO-1, IR 2 Gy): 0.188
- S.F. (FLO-1 cells; FLO-1, IR 4 Gy): 0.042
- S.F. (FLO-1 cells; FLO-1, IR 6 Gy): 0.005
